Source: patent US7138361B2, “Herbicidal heterocycles” (E. I. du Pont de Nemours and Company, priority 2000, dated 2006)

Assays:
Assay type in all cases: in vivo
[1] = tested on: giant foxtail (Setaria faberii); test: Test B postemergence
How it was run: (§1)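 Preemergence: seeds planted and treated with test chemicals in non-phytotoxic solvent with surfactant; postemergence on plants 2–18 cm (1- to 4-leaf stage). Kept in greenhouse 13–15 days, then visually rated against controls on a 0 (no effect) to 100 (complete control) scale.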

[2] = tested on: wheat (Triticum aestivum); test: Test B postemergence
How it was run: as §1

[3] = tested on: lambsquarters (Chenopodium album); test: Test B postemergence
How it was run: as §1

[4] = tested on: velvetleaf (Abutilon theophrasti); test: Test B postemergence
How it was run: as §1

[5] = tested on: Surinam grass (Brachiaria decumbens); test: Test B postemergence
How it was run: as §1

[6] = tested on: barnyardgrass (Echinochloa crus-galli); test: Test B postemergence
How it was run: as §1

[7] = tested on: crabgrass (Digitaria sanguinalis); test: Test B postemergence
How it was run: as §1

[8] = tested on: blackgrass (Alopecurus myosuroides); test: Test B postemergence
How it was run: as §1

wild oat (Avena fatua) = test: Test B postemergence
How it was run: as §1

[9] = tested on: pigweed (Amaranthus retroflexus); test: Test B postemergence
How it was run: as §1

[10] = tested on: morning glory (Ipomoea hederacea); test: Test B postemergence
How it was run: as §1

corn (Zea mays) [11] = test: Test B postemergence
How it was run: as §1

[12] = tested on: cocklebur (Xanthium strumarium); test: Test B postemergence
How it was run: as §1

rice (Oryza saliva) [13] = test: Test C flooded paddy test; conditions: for Rice plant response rating: Flooded Paddy, scale 0 to 100, 0 no effect, 100 complete control; for Plant response rating, Rice: flooded paddy test, scale 0 to 100 (0 no effect, 100 complete control)
How it was run: (§2)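 Visual ratings (0 = no effect, 100 = complete control) were made 12–14 days after treatment, relative to greenhouse controls. Plants in the flooded paddy test were rice, smallflower flatsedge, duck salad and barnyardgrass, treated at the 2-leaf stage.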

[14] = tested on: barnyardgrass (Echinochloa crus-galli); test: Test C flooded paddy test; conditions: for Barnyardgrass plant response rating: Flooded Paddy, scale 0 to 100, 0 no effect, 100 complete control; for Plant response rating, Barnyardgrass: flooded paddy test, scale 0 to 100 (0 no effect, 100 complete control)
How it was run: as §2

[15] = tested on: smallflower flatsedge (Cyperus difformis); test: Test C flooded paddy test; conditions: for Flatsedge plant response rating: Flooded Paddy, scale 0 to 100, 0 no effect, 100 complete control; for Plant response rating, Flatsedge: flooded paddy test, scale 0 to 100 (0 no effect, 100 complete control)
How it was run: as §2

[16] = tested on: duck salad (Heteranthera limosa); test: Test C flooded paddy test; conditions: for Ducksalad plant response rating: Flooded Paddy, scale 0 to 100, 0 no effect, 100 complete control; for Plant response rating, Ducksalad: flooded paddy test, scale 0 to 100 (0 no effect, 100 complete control)
How it was run: as §2

[17] = tested on: giant foxtail (Setaria faberii); test: Test B preemergence
How it was run: as §1

[18] = tested on: lambsquarters (Chenopodium album); test: Test B preemergence
How it was run: as §1

[19] = tested on: velvetleaf (Abutilon theophrasti); test: Test B preemergence
How it was run: as §1

rice (Oryza saliva) [20] = test: Test B preemergence
How it was run: as §1

[21] = tested on: Surinam grass (Brachiaria decumbens); test: Test B preemergence
How it was run: as §1

[22] = tested on: barnyardgrass (Echinochloa crus-galli); test: Test B preemergence
How it was run: as §1

[23] = tested on: crabgrass (Digitaria sanguinalis); test: Test B preemergence
How it was run: as §1

[24] = tested on: pigweed (Amaranthus retroflexus); test: Test B preemergence
How it was run: as §1

[25] = tested on: morning glory (Ipomoea hederacea); test: Test B preemergence
How it was run: as §1

corn (Zea mays) [26] = test: Test B preemergence
How it was run: as §1

[27] = tested on: cocklebur (Xanthium strumarium); test: Test B preemergence
How it was run: as §1

[28] = Rate 125 g/ha, scale 0 to 100, 0 no effect, 100 complete control
[29] = Rate 500 g/ha, scale 0 to 100, 0 is no effect, 100 is complete control, 13 to 15 days
[30] = Preemergence, Rate 500 g/ha, scale 0 to 100, 0 no effect, 100 complete control
[31] = preemergence, Rate 125 g/ha, scale of 0 to 100 where 0 is no effect and 100 is complete control, 13 to 15 days

CCCCC(CCCC)c1ccn(C2SCN(c3cccc(C(F)(F)F)c3)C2=O)n1 (centres unmarked) [Compound 116]
Plant response rating, Foxtail, Giant [1, 28]: 0 | Plant response rating, Foxtail, Giant [1, 29]: 0 | Plant response rating, Wheat [2, 28]: 20 | Plant response rating, Wheat [2, 29]: 20 | Plant response rating, Lambsquarters [3, 28]: 70 | Plant response rating, Lambsquarters [3, 29]: 90 | Plant response rating, Velvetleaf [4, 28]: 20 | Plant response rating, Velvetleaf [4, 29]: 30 | Plant response rating, Surinam grass [5, 28]: 0 | Plant response rating, Surinam grass [5, 29]: 20 | Plant response rating, Barnyardgrass [6, 28]: 0 | Plant response rating, Barnyardgrass [6, 29]: 20 | Plant response rating, Crabgrass [7, 28]: 20 | Plant response rating, Crabgrass [7, 29]: 40 | Plant response rating, Blackgrass [8, 28]: 0 | Plant response rating, Blackgrass [8, 29]: 60 | Plant response rating, Wild Oat (wild oat (Avena fatua); [28]): 30 | Plant response rating, Wild Oat (wild oat (Avena fatua); [29]): 50 | Plant response rating, Pigweed [9, 28]: 50 | Plant response rating, Pigweed [9, 29]: 70 | Plant response rating, Morningglory [10, 28]: 30 | Plant response rating, Morningglory [10, 29]: 30 | Plant response rating, Corn (corn (Zea mays) [11]; [28]): 20 | Plant response rating, Corn (corn (Zea mays) [11]; [29]): 20 | Plant response rating, Cocklebur [12, 28]: 30 | Plant response rating, Cocklebur [12, 29]: 50 | Rice plant response rating (rice (Oryza saliva) [13]; Rate 250 g/ha): 0 | Rice plant response rating (rice (Oryza saliva) [13]; Rate 500 g/ha): 0 | Plant response rating, Rice (rice (Oryza saliva) [13]; Rate 62 g/ha): 0 | Plant response rating, Rice (rice (Oryza saliva) [13]; Rate 125 g/ha): 0 | Barnyardgrass plant response rating ([14]; Rate 250 g/ha): 0 | Barnyardgrass plant response rating ([14]; Rate 500 g/ha): 0 | Plant response rating, Barnyardgrass ([14]; Rate 62 g/ha): 0 | Plant response rating, Barnyardgrass ([14]; Rate 125 g/ha): 0 | Flatsedge plant response rating ([15]; Rate 250 g/ha): 0 | Flatsedge plant response rating ([15]; Rate 500 g/ha): 0 | Plant response rating, Flatsedge ([15]; Rate 62 g/ha): 0 | Plant response rating, Flatsedge ([15]; Rate 125 g/ha): 0 | Ducksalad plant response rating ([16]; Rate 250 g/ha): 0 | Ducksalad plant response rating ([16]; Rate 500 g/ha): 0 | Plant response rating, Ducksalad ([16]; Rate 62 g/ha): 0 | Plant response rating, Ducksalad ([16]; Rate 125 g/ha): 0 | Plant response rating, Foxtail, Giant [17, 30]: 0 | Plant response rating, Foxtail, Giant [17, 31]: 0 | Plant response rating, Lambsquarters [18, 30]: 0 | Plant response rating, Lambsquarters [18, 31]: 0 | Plant response rating, Velvetleaf [19, 30]: 0 | Plant response rating, Velvetleaf [19, 31]: 0 | Plant response rating, Rice (rice (Oryza saliva) [20]; [30]): 0 | Plant response rating, Rice (rice (Oryza saliva) [20]; [31]): 0 | Plant response rating, Surinam grass [21, 30]: 0 | Plant response rating, Surinam grass [21, 31]: 0 | Plant response rating, Barnyardgrass [22, 30]: 0 | Plant response rating, Barnyardgrass [22, 31]: 0 | Plant response rating, Crabgrass [23, 30]: 0 | Plant response rating, Crabgrass [23, 31]: 0 | Plant response rating, Pigweed [24, 30]: 0 | Plant response rating, Pigweed [24, 31]: 0 | Plant response rating, Morningglory [25, 30]: 0 | Plant response rating, Morningglory [25, 31]: 0 | Plant response rating, Corn (corn (Zea mays) [26]; [30]): 0 | Plant response rating, Corn (corn (Zea mays) [26]; [31]): 0 | Plant response rating, Cocklebur [27, 30]: 0 | Plant response rating, Cocklebur [27, 31]: 0

CCCOC(=O)c1cccc(N2CCC(n3ccc(C(C)(C)C)n3)C2=O)c1 (centres unmarked) [Compound 123]
Plant response rating, Foxtail, Giant [1, 28]: 0 | Plant response rating, Wheat [2, 28]: 0 | Plant response rating, Lambsquarters [3, 28]: 0 | Plant response rating, Velvetleaf [4, 28]: 0 | Plant response rating, Surinam grass [5, 28]: 0 | Plant response rating, Surinam grass [5, 29]: 0 | Plant response rating, Barnyardgrass [6, 28]: 0 | Plant response rating, Barnyardgrass [6, 29]: 0 | Plant response rating, Crabgrass [7, 28]: 0 | Plant response rating, Blackgrass [8, 29]: 0 | Plant response rating, Wild Oat (wild oat (Avena fatua); [28]): 0 | Plant response rating, Pigweed [9, 28]: 0 | Plant response rating, Morningglory [10, 28]: 0 | Plant response rating, Corn (corn (Zea mays) [11]; [28]): 0 | Plant response rating, Corn (corn (Zea mays) [11]; [29]): 0 | Plant response rating, Cocklebur [12, 28]: 30 | Plant response rating, Cocklebur [12, 29]: 80 | Rice plant response rating (rice (Oryza saliva) [13]; Rate 250 g/ha): 0 | Rice plant response rating (rice (Oryza saliva) [13]; Rate 500 g/ha): 0 | Plant response rating, Rice (rice (Oryza saliva) [13]; Rate 62 g/ha): 0 | Plant response rating, Rice (rice (Oryza saliva) [13]; Rate 125 g/ha): 0 | Barnyardgrass plant response rating ([14]; Rate 250 g/ha): 0 | Barnyardgrass plant response rating ([14]; Rate 500 g/ha): 0 | Plant response rating, Barnyardgrass ([14]; Rate 62 g/ha): 0 | Plant response rating, Barnyardgrass ([14]; Rate 125 g/ha): 0 | Flatsedge plant response rating ([15]; Rate 250 g/ha): 50 | Flatsedge plant response rating ([15]; Rate 500 g/ha): 90 | Plant response rating, Flatsedge ([15]; Rate 62 g/ha): 30 | Plant response rating, Flatsedge ([15]; Rate 125 g/ha): 30 | Ducksalad plant response rating ([16]; Rate 250 g/ha): 60 | Ducksalad plant response rating ([16]; Rate 500 g/ha): 70 | Plant response rating, Ducksalad ([16]; Rate 62 g/ha): 20 | Plant response rating, Ducksalad ([16]; Rate 125 g/ha): 20 | Plant response rating, Foxtail, Giant [17, 30]: 0 | Plant response rating, Foxtail, Giant [17, 31]: 0 | Plant response rating, Lambsquarters [18, 30]: 60 | Plant response rating, Lambsquarters [18, 31]: 0 | Plant response rating, Velvetleaf [19, 30]: 0 | Plant response rating, Velvetleaf [19, 31]: 0 | Plant response rating, Rice (rice (Oryza saliva) [20]; [30]): 0 | Plant response rating, Rice (rice (Oryza saliva) [20]; [31]): 0 | Plant response rating, Surinam grass [21, 30]: 0 | Plant response rating, Surinam grass [21, 31]: 0 | Plant response rating, Barnyardgrass [22, 30]: 0 | Plant response rating, Barnyardgrass [22, 31]: 0 | Plant response rating, Crabgrass [23, 30]: 60 | Plant response rating, Crabgrass [23, 31]: 0 | Plant response rating, Pigweed [24, 30]: 70 | Plant response rating, Pigweed [24, 31]: 0 | Plant response rating, Morningglory [25, 30]: 0 | Plant response rating, Morningglory [25, 31]: 0 | Plant response rating, Corn (corn (Zea mays) [26]; [30]): 0 | Plant response rating, Corn (corn (Zea mays) [26]; [31]): 0 | Plant response rating, Cocklebur [27, 30]: 0 | Plant response rating, Cocklebur [27, 31]: 0
